Source: PubChem BioAssay AID2060899 (Molecular Pharmacology Branch, DTP, NCI, 2025)
One block for each compound: values may come before it.

Test system: 565726-208-R1-J5-PDC complex spheroids, growth inhibition
Test: Anticancer human tumor 565726-208-R1-J5-PDC patient-derived pancreatic adenocarcinoma cell line growth inhibition [RAS]
Details: for IC50: curve of first compound; for viability, T/C: stronger effect = lower value
Procedure, shortened: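 Agents were tested in combination matrices in half-log decrements from a top concentration at or near clinical Cmax (10 microM if undetermined). Targets were multi-cell spheroids of tumour lines plus HUVEC and MSC stromal cells.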

[1] = second compound 0.000949 µM, first compound 0.00316 µM
[2] = second compound 0.000949 µM, first compound 0.01 µM
[3] = second compound 0.000949 µM, first compound 0.0316 µM
[4] = second compound 0.000949 µM, first compound 0.1 µM
[5] = second compound 0.000949 µM, first compound 0.316 µM
[6] = second compound 0.000949 µM, first compound 1 µM
[7] = second compound 0.003 µM, first compound 0.00316 µM
[8] = second compound 0.003 µM, first compound 0.01 µM
[9] = second compound 0.003 µM, first compound 0.0316 µM
[10] = second compound 0.003 µM, first compound 0.1 µM
[11] = second compound 0.003 µM, first compound 0.316 µM
[12] = second compound 0.003 µM, first compound 1 µM
[13] = second compound 0.00949 µM, first compound 0.00316 µM
[14] = second compound 0.00949 µM, first compound 0.01 µM
[15] = second compound 0.00949 µM, first compound 0.0316 µM
[16] = second compound 0.00949 µM, first compound 0.1 µM
[17] = second compound 0.00949 µM, first compound 0.316 µM
[18] = second compound 0.00949 µM, first compound 1 µM
[19] = second compound 0.03 µM, first compound 0.00316 µM
[20] = second compound 0.03 µM, first compound 0.01 µM
[21] = second compound 0.03 µM, first compound 0.0316 µM
[22] = second compound 0.03 µM, first compound 0.1 µM
[23] = second compound 0.03 µM, first compound 0.316 µM
[24] = second compound 0.03 µM, first compound 1 µM
[25] = second compound 0.0949 µM, first compound 0.00316 µM
[26] = second compound 0.0949 µM, first compound 0.01 µM
[27] = second compound 0.0949 µM, first compound 0.0316 µM
[28] = second compound 0.0949 µM, first compound 0.1 µM
[29] = second compound 0.0949 µM, first compound 0.316 µM
[30] = second compound 0.0949 µM, first compound 1 µM
[31] = second compound 0.3 µM, first compound 0.00316 µM
[32] = second compound 0.3 µM, first compound 0.01 µM
[33] = second compound 0.3 µM, first compound 0.0316 µM
[34] = second compound 0.3 µM, first compound 0.1 µM
[35] = second compound 0.3 µM, first compound 0.316 µM
[36] = second compound 0.3 µM, first compound 1 µM
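Also: spheroids exposed to compounds for seven days before readout.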
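For viability, T/C in this document: 100% = DMSO vehicle control viability.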

IC50 (second compound 0.000949 µM): > 1000 nM
IC50 (second compound 0.003 µM): 6.29 nM
IC50 (second compound 0.00949 µM): < 3.16 nM
IC50 (second compound 0.03 µM): < 3.16 nM
IC50 (second compound 0.0949 µM): < 3.16 nM
IC50 (second compound 0.3 µM): < 3.16 nM
Compound: C=CC(=O)N1CCN(c2nc(OCC3CCCN3C)nc3c(F)c(-c4nc(N)cc(C)c4C(F)(F)F)c(Cl)cc23)C(C)C1 (stereo not drawn) + CCn1c(-c2cc(N3CCN(C)CC3)cnc2C(C)OC)c2c3cc(ccc31)-c1csc(n1)CC(NC(=O)C1CC1C)C(=O)N1CCCC(N1)C(=O)OCC(C)(C)C2
viability, T/C [1]: 63.5%
viability, T/C [2]: 59.2%
viability, T/C [3]: 61.2%
viability, T/C [4]: 63.1%
viability, T/C [5]: 62.5%
viability, T/C [6]: 57.9%
viability, T/C [7]: 50.9%
viability, T/C [8]: 43.8%
viability, T/C [9]: 53.3%
viability, T/C [10]: 51.4%
viability, T/C [11]: 50.5%
viability, T/C [12]: 43.5%
viability, T/C [13]: 40.5%
viability, T/C [14]: 39.7%
viability, T/C [15]: 34%
viability, T/C [16]: 41.8%
viability, T/C [17]: 39.9%
viability, T/C [18]: 34.1%
viability, T/C [19]: 29%
viability, T/C [20]: 32.3%
viability, T/C [21]: 29.9%
viability, T/C [22]: 31.7%
viability, T/C [23]: 34.5%
viability, T/C [24]: 29.4%
viability, T/C [25]: 23.1%
viability, T/C [26]: 27.1%
viability, T/C [27]: 25.5%
viability, T/C [28]: 27.5%
viability, T/C [29]: 29.2%
viability, T/C [30]: 24.3%
viability, T/C [31]: 22.6%
viability, T/C [32]: 22.1%
viability, T/C [33]: 23.2%
viability, T/C [34]: 22.1%
viability, T/C [35]: 25.6%
viability, T/C [36]: 22.6%

IC50 (second compound 0.000949 µM): 1.34 nM
IC50 (second compound 0.003 µM): < 0.949 nM
IC50 (second compound 0.00949 µM): < 0.949 nM
IC50 (second compound 0.03 µM): < 0.949 nM
IC50 (second compound 0.0949 µM): < 0.949 nM
IC50 (second compound 0.3 µM): < 0.949 nM
Compound: CC1(C)CCC(Nc2ncc(C(F)(F)F)c(-c3c[nH]c4c(P(C)(C)=O)c(C#N)ccc34)n2)CN1 (stereo not drawn) + CCn1c(-c2cc(N3CCN(C)CC3)cnc2C(C)OC)c2c3cc(ccc31)-c1csc(n1)CC(NC(=O)C1CC1C)C(=O)N1CCCC(N1)C(=O)OCC(C)(C)C2
viability, T/C (second compound 0.000949 µM, first compound 0.000949 µM): 54.4%
viability, T/C (second compound 0.000949 µM, first compound 0.003 µM): 41.2%
viability, T/C (second compound 0.000949 µM, first compound 0.00949 µM): 30.8%
viability, T/C (second compound 0.000949 µM, first compound 0.03 µM): 31.5%
viability, T/C (second compound 0.000949 µM, first compound 0.0949 µM): 31.6%
viability, T/C (second compound 0.000949 µM, first compound 0.3 µM): 34.4%
viability, T/C (second compound 0.003 µM, first compound 0.000949 µM): 46.8%
viability, T/C (second compound 0.003 µM, first compound 0.003 µM): 40.3%
viability, T/C (second compound 0.003 µM, first compound 0.00949 µM): 38.4%
viability, T/C (second compound 0.003 µM, first compound 0.03 µM): 28.9%
viability, T/C (second compound 0.003 µM, first compound 0.0949 µM): 32.6%
viability, T/C (second compound 0.003 µM, first compound 0.3 µM): 29.9%
viability, T/C (second compound 0.00949 µM, first compound 0.000949 µM): 37.3%
viability, T/C (second compound 0.00949 µM, first compound 0.003 µM): 36.1%
viability, T/C (second compound 0.00949 µM, first compound 0.00949 µM): 30.4%
viability, T/C (second compound 0.00949 µM, first compound 0.03 µM): 30.7%
viability, T/C (second compound 0.00949 µM, first compound 0.0949 µM): 28.1%
viability, T/C (second compound 0.00949 µM, first compound 0.3 µM): 28.7%
viability, T/C (second compound 0.03 µM, first compound 0.000949 µM): 30%
viability, T/C (second compound 0.03 µM, first compound 0.003 µM): 30.9%
viability, T/C (second compound 0.03 µM, first compound 0.00949 µM): 26.4%
viability, T/C (second compound 0.03 µM, first compound 0.03 µM): 25.5%
viability, T/C (second compound 0.03 µM, first compound 0.0949 µM): 28.5%
viability, T/C (second compound 0.03 µM, first compound 0.3 µM): 26%
viability, T/C (second compound 0.0949 µM, first compound 0.000949 µM): 24.8%
viability, T/C (second compound 0.0949 µM, first compound 0.003 µM): 27.1%
viability, T/C (second compound 0.0949 µM, first compound 0.00949 µM): 26.1%
viability, T/C (second compound 0.0949 µM, first compound 0.03 µM): 24%
viability, T/C (second compound 0.0949 µM, first compound 0.0949 µM): 26.8%
viability, T/C (second compound 0.0949 µM, first compound 0.3 µM): 23.8%
viability, T/C (second compound 0.3 µM, first compound 0.000949 µM): 22.5%
viability, T/C (second compound 0.3 µM, first compound 0.003 µM): 23.4%
viability, T/C (second compound 0.3 µM, first compound 0.00949 µM): 22.8%
viability, T/C (second compound 0.3 µM, first compound 0.03 µM): 22.4%
viability, T/C (second compound 0.3 µM, first compound 0.0949 µM): 25.4%
viability, T/C (second compound 0.3 µM, first compound 0.3 µM): 21.9%

IC50 (second compound 0.000949 µM): > 1000 nM
IC50 (second compound 0.003 µM): > 1000 nM
IC50 (second compound 0.00949 µM): > 1000 nM
IC50 (second compound 0.03 µM): > 1000 nM
IC50 (second compound 0.0949 µM): > 1000 nM
IC50 (second compound 0.3 µM): > 1000 nM
Compound: C=CC(=O)Nc1cc(Nc2nccc(-c3cn(C)c4ccccc34)n2)c(OC)cc1N(C)CCN(C)C + CCn1c(-c2cccnc2C(C)OC)c2c3cc(ccc31)N1CCOC(CC(NC(=O)C(C(C)C)N(C)C(=O)C3(F)CCN(C(=O)C#CC(C)(C)N(C)C)CC3)C(=O)N3CCCC(N3)C(=O)OCC(C)(C)C2)C1
viability, T/C [1]: 98.1%
viability, T/C [2]: 87.7%
viability, T/C [3]: 93.8%
viability, T/C [4]: 79.7%
viability, T/C [5]: 78.8%
viability, T/C [6]: 65.2%
viability, T/C [7]: 93.4%
viability, T/C [8]: 91%
viability, T/C [9]: 89%
viability, T/C [10]: 77.1%
viability, T/C [11]: 76.4%
viability, T/C [12]: 57%
viability, T/C [13]: 99.1%
viability, T/C [14]: 91.6%
viability, T/C [15]: 83.3%
viability, T/C [16]: 73.3%
viability, T/C [17]: 78%
viability, T/C [18]: 55.8%
viability, T/C [19]: 105%
viability, T/C [20]: 107%
viability, T/C [21]: 94%
viability, T/C [22]: 81.9%
viability, T/C [23]: 83.3%
viability, T/C [24]: 62.2%
viability, T/C [25]: 96%
viability, T/C [26]: 87%
viability, T/C [27]: 92.2%
viability, T/C [28]: 78.8%
viability, T/C [29]: 81.6%
viability, T/C [30]: 60.2%
viability, T/C [31]: 88.1%
viability, T/C [32]: 78.3%
viability, T/C [33]: 86.5%
viability, T/C [34]: 72.7%
viability, T/C [35]: 70.8%
viability, T/C [36]: 55.7%

IC50 (second compound 0.000949 µM): 161 nM
IC50 (second compound 0.003 µM): 130 nM
IC50 (second compound 0.00949 µM): 160 nM
IC50 (second compound 0.03 µM): 182 nM
IC50 (second compound 0.0949 µM): 192 nM
IC50 (second compound 0.3 µM): 95.7 nM
Compound: O=C(c1ccc(F)c(F)c1Nc1ccc(I)cc1F)N1CC(O)([C@@H]2CCCCN2)C1 + CCn1c(-c2cccnc2C(C)OC)c2c3cc(ccc31)N1CCOC(CC(NC(=O)C(C(C)C)N(C)C(=O)C3(F)CCN(C(=O)C#CC(C)(C)N(C)C)CC3)C(=O)N3CCCC(N3)C(=O)OCC(C)(C)C2)C1
viability, T/C [1]: 95.3%
viability, T/C [2]: 83.2%
viability, T/C [3]: 76.8%
viability, T/C [4]: 55.4%
viability, T/C [5]: 40%
viability, T/C [6]: 17.7%
viability, T/C [7]: 96.4%
viability, T/C [8]: 80.4%
viability, T/C [9]: 71.8%
viability, T/C [10]: 53.2%
viability, T/C [11]: 36.8%
viability, T/C [12]: 19%
viability, T/C [13]: 93.7%
viability, T/C [14]: 87.3%
viability, T/C [15]: 67.7%
viability, T/C [16]: 57.1%
viability, T/C [17]: 43.2%
viability, T/C [18]: 19.9%
viability, T/C [19]: 82.7%
viability, T/C [20]: 82.3%
viability, T/C [21]: 77.9%
viability, T/C [22]: 59.5%
viability, T/C [23]: 40.6%
viability, T/C [24]: 19.4%
viability, T/C [25]: 82.8%
viability, T/C [26]: 78.8%
viability, T/C [27]: 72.9%
viability, T/C [28]: 57.4%
viability, T/C [29]: 43.8%
viability, T/C [30]: 19.8%
viability, T/C [31]: 82.6%
viability, T/C [32]: 71.2%
viability, T/C [33]: 67.5%
viability, T/C [34]: 45.9%
viability, T/C [35]: 34.4%
viability, T/C [36]: 13.6%
